According to a melting point compilation (Tetko et al.; mined from patent text by program, amines drawn as free bases though some values may be those of a salt):

Compound | melting point [°C]
COc1cc(COc2nn(-c3ccccc3)cc2/C=C/c2nc(C)cs2)ccc1OCc1nc(-c2ccco2)oc1C | 130 to 131
CCOC(=O)c1sc(N)nc1CC | 177 to 179
O=C(O)c1ccc(-c2ccc3cc(O)c(C45CC6CC(CC(C6)C4)C5)cc3c2)cc1 | 295 to 300
FC(F)(F)c1cccc(-c2cc(CCl)on2)c1 | 33 to 37
C#Cc1cc(Cc2cnc(N)nc2N)cc(OC)c1OC | 173 to 175
CC12CCC3c4ccc(C(=O)O)cc4CCC3C1CCC2C(=O)CCC1CCCCC1 (stereo unspecified) | 250 to 253
O=[N+]([O-])c1cccnc1Nc1ccc(F)cc1F | 110
COc1ccc(-c2cc(=O)c3c(O)cc(OC)cc3o2)cc1 | 174 to 175
c1ccc2c(c1)C[C@H]1CSC(=Nc3nccs3)N1C2 | 158
C[C@H]1[C@H](N)CN1C(c1ccccc1)c1ccccc1 (relative stereo) | 68 to 69
COc1ccc(-c2cc(F)c(F)cc2-c2ccc(S(C)(=O)=O)cc2)cc1C | 160 to 162
CS(=O)(=O)N1CCC[C@@H]1[C@H](CS(=O)(=O)c1ccc(Oc2ccc(OC(F)(F)F)cc2)cc1)N(O)C=O | 89.6 to 93
CC(NC(N)=C[N+](=O)[O-])C1=CCC=CC1 (stereo unspecified) | 120 to 125
Cn1nc(S(C)(=O)=O)c(=O)c2ccccc21 | 202 to 204
CCCC1(C2CCCC2)Cc2cc(OCCCC(=O)O)c(Cl)c(Cl)c2C1=O (stereo unspecified) | 140 to 141
CCC(=O)c1cc2c(=O)n(NS(C)(=O)=O)c(=O)[nH]c2cc1C(F)(F)F | 234 to 236
Cc1nnccc1-c1c(-c2ccccc2)nn2ccccc12 | 209 to 214
N#Cc1c[nH]c(C(N)=O)c1 | 253 to 256
CN1C(=O)Cn2c(C(=O)N3CCOCC3)nnc2-c2cc(Cl)ccc21 | 200 to 201
COc1ccc2c(C(=O)C3CSC(c4cccnc4)N3)c[nH]c2c1 (stereo unspecified) | 86 to 88
Cc1ccc2nc(-c3ccc(-c4ccccc4)cc3)nc(C(=O)O)c2c1 | 193 to 196

The next lines start with the values.

melting point [°C] | Compound
232 to 235 | O=C1CCC(=O)N1c1ccncc1
228 | Cc1ccc(Nn2c(-c3ccccc3)c(C)[nH]c2=S)cc1C
147 | O=C(O)c1ccc(-c2ccoc2)s1
195 to 222 | CCC(C)(C)c1cc(C(C)(C)CC)c2c(c1)C1(O)C(=O)c3ccccc3C1(O)O2 (stereo unspecified)
98 to 100 | COC(=O)C1Cc2cc(-c3ccc(C(C)O)cc3)ccc2O1 (stereo unspecified)
75 | OC(CNCCc1ccsc1)c1ccccc1 (stereo unspecified)
80 to 82 | C=CCOc1ccc2c(ccc(=O)n2CC=C(C)C)c1
134 to 137 | COc1cc(C(=O)NS(=O)(=O)c2ccccc2Cl)ccc1Cn1cc(CCC(=O)N(C)C)c2ccc(CCC(=O)N(C)C)cc21
90 to 91 | CC(CC(=O)c1cccc(C(F)(F)F)c1)C(=O)O (stereo unspecified)
125 | Cc1ccc2cc(NS(=O)(=O)c3cc(Cl)ccc3Cl)ccc2n1
290 to 292 | COC(=O)c1cc(-c2ccc3c(c2)c2cc(-c4ccc(Cl)cc4Cl)c(=O)n(C)c2n3C)[nH]n1
155 to 168 | CC(C)Cc1ccc(C(C)C(=O)NCCCNC2=NCCN2)cc1 (stereo unspecified)
113 to 116 | CCOC(=O)c1cc2c3ccccc3nc(C)n2c1
76.5 to 80 | CC(C)(C)OC(=O)NC1CCN(CC23CC(c4ccccc42)c2ccc(Cl)cc23)CC1 (stereo unspecified)
211 to 212 | CC(=O)c1c(C)[nH]c(-c2ccc(F)cc2)c1N
164 to 171 | CC1(c2c[nH]cn2)CCc2ccccc21 (stereo unspecified)
148 to 149 | COC(=O)C1=C(CF)NC(C)=C(C(=O)OC(C)C)C1c1cccc(Cl)c1Cl (stereo unspecified)
120 to 121 | CCc1nccn1N=Cc1ccc(N(C)C)cc1
119 to 121 | CC(C)(C)OC(=O)COc1ccc(C(=O)O)cc1
101 to 102 | COc1cc2c(cc1OC)C(c1ccccc1)N(C(=O)NCCN1CCCCC1)CC2 (stereo unspecified)
